# Data published in article PMC7059793, “Novel Chemical Scaffolds to Inhibit the Neutral Amino Acid Transporter B^0AT1 (SLC6A19), a Potential Target to Treat Metabolic Diseases” (Frontiers in Pharmacology, 2020).
# Tests used:
# Format in all cases: cell-based
# B^0AT1 [1] = biological target: T1, B^0AT1 (Homo sapiens, UniProt Q695T7); test: Radioactive flux assay (radiolabelled leucine/isoleucine uptake) in CHO-BC cells; settings: 150 μM [14C]leucine or [14C]isoleucine, 6 min, 37°C
# T1 construct: expressed in transfected cells
# T1 sequence (Q695T7 1-634): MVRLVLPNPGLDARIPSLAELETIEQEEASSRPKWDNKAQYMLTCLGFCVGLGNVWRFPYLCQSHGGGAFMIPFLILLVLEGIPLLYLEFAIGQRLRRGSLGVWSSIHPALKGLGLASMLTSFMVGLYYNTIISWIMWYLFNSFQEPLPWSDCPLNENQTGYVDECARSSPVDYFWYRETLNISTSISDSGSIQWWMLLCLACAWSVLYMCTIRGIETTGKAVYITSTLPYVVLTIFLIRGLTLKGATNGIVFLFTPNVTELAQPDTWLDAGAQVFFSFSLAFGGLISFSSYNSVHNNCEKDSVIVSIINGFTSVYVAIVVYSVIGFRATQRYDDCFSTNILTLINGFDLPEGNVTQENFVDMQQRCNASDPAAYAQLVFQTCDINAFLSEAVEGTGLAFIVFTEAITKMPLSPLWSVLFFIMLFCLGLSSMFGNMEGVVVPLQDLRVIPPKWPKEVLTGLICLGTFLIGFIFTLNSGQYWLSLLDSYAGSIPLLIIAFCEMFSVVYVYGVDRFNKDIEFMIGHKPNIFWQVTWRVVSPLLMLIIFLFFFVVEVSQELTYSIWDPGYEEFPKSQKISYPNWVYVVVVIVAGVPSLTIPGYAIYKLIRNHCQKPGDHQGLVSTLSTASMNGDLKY
# T1 sequence (Q9HBJ8 15-222 partner): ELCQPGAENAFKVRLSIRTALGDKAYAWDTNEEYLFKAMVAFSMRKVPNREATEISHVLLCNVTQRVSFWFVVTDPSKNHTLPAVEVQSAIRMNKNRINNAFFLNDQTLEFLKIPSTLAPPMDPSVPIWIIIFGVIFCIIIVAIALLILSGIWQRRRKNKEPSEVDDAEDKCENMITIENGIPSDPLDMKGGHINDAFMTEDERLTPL
# Protocol: (§1) CHO-BC cells with passage numbers from 3 to 10 were used in radio-labelled uptake assays. Before the assay, the cells were seeded out in 35 mm dishes (Corning) and maintained for 48–72 h until reaching 80–90% confluence. To initiate transport, the culture medium was removed and the cells washed three times with HBSS + G. Subsequently, cells were incubated with HBSS + G, radiolabelled substrates (150 μM L-[U-^14C]leucine or 150 μM L-[U-^14C]isoleucine) and inhibitors as indicated in the figures or table in a 37°C water bath for 6 min. To terminate transport, cells were washed three times with ice-cold HBSS pH 7.5. For measuring sodium-independent uptake, NaCl in Hank’s buffer was replaced by NMDG-Cl. Cells were then harvested by homogenizing with 500 µl of 0.1 M HCl. An aliquot of 400 µl was used for scintillation counting and the remainder for protein quantification. To investigate inhibition of ASCT2, uptake of 100 μM [^14C]glutamine was measured in 143B cells in the absence and presence of inhibitor (at 10 μM and 50 μM). To measure inhibition of LAT1, uptake of [^14C]leucine was measured in HBSS + G in which NaCl was replaced by NMDG-Cl in 143B cells in the absence and presence of inhibitor (at 10 μM and 50 μM).
# Data are shown as mean ± S.D., transport activities indicated as Na^+-dependent net uptake, were calculated by subtracting the uptake activity in the absence of Na^+ from the total uptake rate. The fluorescent signals measured in the FLIPR assay were normalized to baseline readings before the addition of substrates. Data are presented as percentage of baseline at each time point. IC50 was calculated using the equation: y=ymax(1−[x]/[x]+IC50) .
# B^0AT1 [2] = biological target: T1, B^0AT1; test: FLIPR assay with inhibitors alone in the absence of substrate (substrate test) in CHO-BC cells; settings: 30 μM, baseline 100 RFU
# Protocol: Membrane depolarisation induced by amino acid transport was monitored using a FLIPR® kit (Molecular Devices, R8042 BLUE DYE). Before the assay, CHO-BC cells were seeded out at a density of 60,000 cells/well and maintained in a flat transparent bottom 96-well plate (Corning) overnight. After washing three times with Hank’s balanced salt solution (136.6 mM NaCl, 5.4 mM KCl, 0.44 mM KH2PO4, 2.7mM Na2HPO4, 1.26mM CaCl2, 0.5mM MgCl2, 0.4 mM MgSO4, 10mM HEPES, pH 7.5, supplemented with 5 mM glucose, abbreviated HBSS + G), cells in each well were incubated for 30 min at room temperature in 50 µl of HBSS pH 7.5 containing 5 mM glucose and compounds as indicated, together with 50 µl of dye-loading buffer provided with the kit. […] Fluorescence was detected at room temperature using a PerkinElmer multimode Plate Reader, with an excitation wavelength of 530 nm and emission wavelength of 565 nm.
# Figure 6 Specificity and efficacy of B^0AT1 inhibitors. […] Although structurally unrelated to the substrates of the transporter, compounds E4, E18, and CB3 are highly specific.
# ASCT2 (SLC1A5) = biological target: T2, ASCT2 (SLC1A5) (Homo sapiens, UniProt Q15758); test: Na+-dependent [14C]glutamine uptake in 143B cells; settings: inhibitor at 10 μM and 50 μM, 100 μM [14C]glutamine
# T2 construct: endogenous in cells; host or cells: 143B TK- cells (human osteosarcoma)
# T2 sequence (Q15758 1-541): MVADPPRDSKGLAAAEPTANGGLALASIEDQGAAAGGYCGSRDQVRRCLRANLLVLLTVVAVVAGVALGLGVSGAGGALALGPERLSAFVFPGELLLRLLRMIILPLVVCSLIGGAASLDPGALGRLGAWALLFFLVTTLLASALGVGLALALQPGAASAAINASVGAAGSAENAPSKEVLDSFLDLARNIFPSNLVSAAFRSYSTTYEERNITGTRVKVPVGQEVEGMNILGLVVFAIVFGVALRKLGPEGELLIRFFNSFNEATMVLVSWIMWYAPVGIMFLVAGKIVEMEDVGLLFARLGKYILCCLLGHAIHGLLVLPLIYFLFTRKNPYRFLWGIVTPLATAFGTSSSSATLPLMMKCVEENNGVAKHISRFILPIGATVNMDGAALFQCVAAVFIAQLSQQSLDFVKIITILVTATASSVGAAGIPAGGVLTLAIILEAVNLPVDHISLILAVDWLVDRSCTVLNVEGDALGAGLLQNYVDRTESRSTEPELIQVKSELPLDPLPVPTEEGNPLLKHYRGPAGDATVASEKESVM
# Protocol: as §1
# To investigate the specificity of the compounds further, we tested them in human 143B osteosarcoma cells, which we have extensively characterised previously and used for pharmacological analysis ([Broer et al., 2018]). Na^+-dependent glutamine transport in 143B cells is largely mediated by ASCT2 (SLC1A5). Na^+-independent transport of leucine, by contrast, is mediated entirely by LAT1.
Compound,IC50 (B^0AT1 [1]),Fluorescence signal when tested alone (no substrate) (B^0AT1 [2]),Inhibition of Na+-dependent glutamine uptake (ASCT2) (ASCT2 (SLC1A5))
Cc1cc(C(=O)Nc2ccc(Cl)cc2C(F)(F)F)no1 [CB3],4.9 ± 0.4 µM,did not increase fluorescence above the baseline,failed to inhibit
Cc1cc(OCC(=O)NC(C)C)cc(C)c1Cl [Compound E4],7.7 ± 1.9 µM,did not increase fluorescence above the baseline,failed to inhibit
COc1ccccc1Nc1nc2ccccc2s1 [Compound E18],3.4 ± 0.3 µM,did not increase fluorescence above the baseline,failed to inhibit
